Test results reported in paper PMC10138577, “Prenylated Flavonoids with Selective Toxicity against Human Cancers” (International Journal of Molecular Sciences, 2023).

Columns and labels:
Type in all cases: cell-based
[1] = tested on: LoVo human colorectal adenocarcinoma cells; assay: In vitro antiproliferative assay (SRB), LoVo; details: LoVo, 72 h exposure, SRB, mean ± SD
Excerpt: (§1) The following established in vitro cell lines were applied: human breast adenocarcinoma (MCF-7 and SK-BR-3), human breast ductal carcinoma (T47D), human prostate adenocarcinoma (PC-3), human prostate carcinoma (Du145), human colorectal adenocarcinoma (HT-29 and LoVo), doxorubicin-resistant human colorectal adenocarcinoma (LoVo/Dx), human myelomonocytic leukemia (MV-4-11), human lung adenocarcinoma (A549), normal murine embryonic fibroblasts (BALB/3T3) and human lung microvascular endothelial (HLMEC). All the cell lines were obtained from the American Type Culture Collection (Rockville, MD, USA) except for LoVo and LoVo/DX, which were received from the Technical University of Gdańsk, Poland, courtesy of Prof. E. Borowski. All the cell lines were maintained in the Institute of Immunology and Experimental Therapy, Wroclaw, Poland. The cells were cultured in the following media: DMEM medium (BALB/3T3), Eagle medium (MCF-7, SK-BR-3, Du145), RPMI medium (HLMEC, MV-4-11) or RPMI 1640 + Opti-MEM (1:1) medium (A549, T47D, LoVo, LoVo/Dx, PC-3, HT-29). The DMEM medium was supplemented with 2 mM L-glutamine and 10% fetal bovine serum. The Eagle medium was supplemented with 4 mM L-glutamine, 10% fetal bovine serum, 1 mM sodium pyruvate for Du145 cells or 2 mM L-glutamine, 1% amino acids and 0.8 mg L^−1 of insulin for MCF-7 and SK-BR-3. The RPMI medium was supplemented with 2 mM L-glutamine, 1 mM sodium pyruvate and 10% fetal bovine serum. The RPMI 1640 + Opti-MEM (1:1) medium was supplemented with 2 mM L-glutamine, 5% fetal bovine serum (PC-3, A549) and 0.8 mg L^−1 insulin (T47D) or 1 mM sodium pyruvate (HT-29, LoVo, LoVoDx) and 0.1 ug/mL doxorubicin (LoVo/Dx). The media contained antibiotics: 100 µg mL^−1 streptomycin and 100 U mL^−1 penicillin. All the cell lines were incubated at 37 °C in a humid atmosphere saturated with 5% CO2.
(§2) The details of this technique were described by Skehan et al.. After 72 h of incubation with the tested compounds, the cells were fixed in situ by gently adding cold 50% trichloroacetic acid—TCA (50 µL per well). The plates were incubated at 4 °C for 1 h and then washed five times with tap water and air-dried. Next, the cellular material fixed with TCA was stained by adding 50 µL of 0.4% sulforhodamine B dissolved in 1% acetic acid to each well and incubating the wells for 30 min at room temperature. The unbound dye was removed by washing the plates five times with 1% acetic acid, whereas the stain bound to the cells was extracted with 150 µL of 10 mM unbuffered Tris base for determination of the optical density at a 540 nm wavelength in a computer-interfaced, 96-well microtiter plate reader–Multiskan FC photometer (Thermo Scientific, Waltham, MA, USA). The background optical density was measured in the wells filled with culture medium, without the cells.
(§3) Twenty-four hours before incubation with the tested compounds, the cells were seeded in 96-well plates (Sarstedt, Nümbrecht, Germany) at a density of 10^4 cells per well (10^3 cells per well for HLMEC) in 100 µL of culture medium. The analysis of the antiproliferative activity of the compounds was performed using sulforhothamine B (SRB) (for all the adherent cells) or 3-(4,5-dimethylthiazol-2-yl)-2,5-diphenyl tetrazolium bromide (MTT) (for the leukemia cells—MV-4-11). The details of this technique have been previously described by Skehan et al. and Antoszak et al.. An assay was performed after 72 h of exposure at varying concentrations (from 0.1 to 100 µg mL^−1) of xanthohumol (1), aurone (2) and the reference drug cisplatin. Each compound at each concentration was tested in a single experiment, which was repeated at least 3 times. […] The results were calculated as the IC50 (μM) (half maximal inhibitory concentration), i.e., the concentration of the tested agent that inhibits the proliferation of the cancer cell population by half. […]

[2] = tested on: Du145 human prostate carcinoma cells; assay: In vitro antiproliferative assay (SRB), Du145; details: Du145, 72 h exposure, SRB, mean ± SD
Excerpt: as §1, §2, §3

[3] = tested on: SK-BR-3 human breast adenocarcinoma cells; assay: In vitro antiproliferative assay (SRB), SK-BR-3; details: SK-BR-3, 72 h exposure, SRB, mean ± SD
Excerpt: as §1, §2, §3

[4] = tested on: HT-29 human colorectal adenocarcinoma cells; assay: In vitro antiproliferative assay (SRB), HT-29; details: HT-29, 72 h exposure, SRB, mean ± SD
Excerpt: as §1, §2, §3

[5] = tested on: MV-4-11 human myelomonocytic leukemia cells; assay: In vitro antiproliferative assay (MTT), MV-4-11; details: MV-4-11, 72 h exposure, MTT, mean ± SD
Excerpt: as §1
The details of this technique were described by Antoszczak et al.. The proliferation inhibition of human myelomonocytic leukemia (MV-4-11) by the tested compounds was measured using the MTT assay. Thus, 20 µL of 3-(4,5-dimethylthiazol-2-yl)-2,5-diphenyl tetrazolium bromide solution was added to each well. Then, the plates were incubated for 4 h in a cell incubator to allow the cells to metabolize the yellow MTT to blue formazan. Next, 80 µL of lysing mixture (consisting of 67.5 g sodium dodecyl sulfate, 225 mL dimethylformamide and 275 mL distilled water) was added to each well. The plates were incubated for 24 h for the formazan crystals to be released from the cells and dissolved, and then the absorbance of each well was read on a 96-well microtiter plate reader (Multiskan FC photometer (Thermo Scientific)) at a 570 nm wavelength.
Twenty-four hours before incubation with the tested compounds, the cells were seeded in 96-well plates (Sarstedt, Nümbrecht, Germany) at a density of 10^4 cells per well (10^3 cells per well for HLMEC) in 100 µL of culture medium. The analysis of the antiproliferative activity of the compounds was performed using sulforhothamine B (SRB) (for all the adherent cells) or 3-(4,5-dimethylthiazol-2-yl)-2,5-diphenyl tetrazolium bromide (MTT) (for the leukemia cells—MV-4-11). The details of this technique have been previously described by Skehan et al. and Antoszak et al.. An assay was performed after 72 h of exposure at varying concentrations (from 0.1 to 100 µg mL^−1) of xanthohumol (1), aurone (2) and the reference drug cisplatin. Each compound at each concentration was tested in a single experiment, which was repeated at least 3 times. […] The results were calculated as the IC50 (μM) (half maximal inhibitory concentration), i.e., the concentration of the tested agent that inhibits the proliferation of the cancer cell population by half. The IC50 values and the mean values ± SD calculated for each experiment separately using GraphPad Prism software (GraphPad Software 9.1.0, San Diego, CA, USA) are presented in Table S1 in the Supplementary Materials.

[6] = tested on: T47D human breast ductal carcinoma cells; assay: In vitro antiproliferative assay (SRB), T47D; details: T47D, 72 h exposure, SRB, mean ± SD
Excerpt: as §1, §2, §3

[7] = tested on: normal murine embryonic fibroblasts (BALB/3T3); assay: In vitro cytotoxicity against normal cells (SRB), BALB/3T3; details: BALB3T3 normal cell line, 72 h exposure, SRB, mean ± SD; read-out: Antiproliferative activity IC50
Excerpt: as §1
(§4) The details of this technique were described by Skehan et al.. […] The unbound dye was removed by washing the plates five times with 1% acetic acid, whereas the stain bound to the cells was extracted with 150 µL of 10 mM unbuffered Tris base for determination of the optical density at a 540 nm wavelength in a computer-interfaced, 96-well microtiter plate reader–Multiskan FC photometer (Thermo Scientific, Waltham, MA, USA). The background optical density was measured in the wells filled with culture medium, without the cells.
(§5) Twenty-four hours before incubation with the tested compounds, the cells were seeded in 96-well plates (Sarstedt, Nümbrecht, Germany) at a density of 10^4 cells per well (10^3 cells per well for HLMEC) in 100 µL of culture medium. […] The results were calculated as the IC50 (μM) (half maximal inhibitory concentration), i.e., the concentration of the tested agent that inhibits the proliferation of the cancer cell population by half. […]

[8] = tested on: LoVo/Dx doxorubicin-resistant human colorectal adenocarcinoma cells; assay: In vitro antiproliferative assay (SRB), LoVo/Dx; details: LoVo/Dx, 72 h exposure, SRB, mean ± SD
Excerpt: as §1, §2, §3

[9] = tested on: human lung microvascular endothelial (HLMEC) cells; assay: In vitro cytotoxicity against normal cells (SRB), HLMEC; details: HLMEC normal cell line, 72 h exposure, SRB, mean ± SD; read-out: Antiproliferative activity IC50
Excerpt: as §1, §4, §5

[10] = tested on: PC-3 human prostate adenocarcinoma cells; assay: In vitro antiproliferative assay (SRB), PC-3; details: PC-3, 72 h exposure, SRB, mean ± SD
Excerpt: as §1, §2, §3

[11] = tested on: MCF-7 human breast adenocarcinoma cells; assay: In vitro antiproliferative assay (SRB), MCF-7; details: MCF-7, 72 h exposure, SRB, mean ± SD
Excerpt: as §1, §2, §3

[12] = tested on: A549 human lung adenocarcinoma cells; assay: In vitro antiproliferative assay (SRB), A549; details: A549, 72 h exposure, SRB, mean ± SD
Excerpt: as §1, §2, §3

`N.N.[Cl][Pt][Cl]` [Cisplatin, cisplatin, reference compound] gave an IC50 [1] of 4.32 ± 0.9 µM, an IC50 [2] of 9.36 ± 0.63 µM and an IC50 [3] of 21.6 ± 3.93 µM. For the same molecule, the IC50 [4] was 18.9 ± 2.25 µM, the IC50 [5] was 1.11 ± 0.36 µM and the IC50 [6] was 13.1 ± 5.58 µM. It also gave an IC50 [7] of 8.96 ± 2.15 µM, an IC50 [8] of 8.97 ± 1.45 µM and an IC50 [9] of 1.26 ± 0.1 µM. For the same molecule, the IC50 [10] was 15.3 ± 2.28 µM, the IC50 [11] was 11.3 ± 0.99 µM and the IC50 [12] was 11.3 ± 1.36 µM.
